Assay results: patent publication US20240270821A1, “GIP/GLP1/GCG TRI-RECEPTOR AGONISTS AND USES THEREOF” (priority 2023, published 2024)
Where two headings read alike, the source gives them in different places. Starred links: 1 amine or outer side, 2 acyl side, 3 side chain; linkers in the order of their positions; H or OH if unused. Non-standard residues stand in square brackets, D forms with d. Groups on a side chain read outwards from the residue. *: point of attachment. C20 diacid = O=C(O)CCCCCCCCCCCCCCCCCCC(=O)*; C18 diacid = O=C(O)CCCCCCCCCCCCCCCCC(=O)*; αMePhe(2-F) = C[C@](N)(Cc1ccccc1F)C(=O)O; γGlu = O=C(O)[C@H](CCC(=O)[*:2])N[*:1]; αMe4Pal = C[C@](N)(Cc1ccncc1)C(=O)O; αMeY = C[C@](N)(Cc1ccc(O)cc1)C(=O)O; 4Pal = N[C@@H](Cc1ccncc1)C(=O)O; αMeL = CC(C)C[C@](C)(N)C(=O)O; αMeS = C[C@](N)(CO)C(=O)O; Orn = NCCC[C@H](N)C(=O)O; AEEA = NCCOCCOCC(=O)O; Aib = CC(C)(N)C(=O)O

Tests used:
Assay type in all cases: cell-based
[1] = target: T1, hGLP-1R (Homo sapiens, UniProt P43220); experiment: Functional cAMP activation in the presence of 0.1% casein (no HSA); conditions: read-out: Relative cAMP EC50, hGLP-1R;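 note: intracellular cAMP rise after 30 min at 37 °C read by HTRF, normalized between buffer only (0%) and maximal control ligand (100%), four-parameter variable-slope fit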
[2] = target: T2, hGIPR (Homo sapiens, UniProt P48546); experiment: as above; conditions: read-out: Relative cAMP EC50, hGIPR;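 note: intracellular cAMP rise after 30 min at 37 °C read by HTRF against a standard curve, scaled between buffer alone (0%) and top control ligand concentration (100%), four-parameter fit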
T2 sequence (P48546 22-466): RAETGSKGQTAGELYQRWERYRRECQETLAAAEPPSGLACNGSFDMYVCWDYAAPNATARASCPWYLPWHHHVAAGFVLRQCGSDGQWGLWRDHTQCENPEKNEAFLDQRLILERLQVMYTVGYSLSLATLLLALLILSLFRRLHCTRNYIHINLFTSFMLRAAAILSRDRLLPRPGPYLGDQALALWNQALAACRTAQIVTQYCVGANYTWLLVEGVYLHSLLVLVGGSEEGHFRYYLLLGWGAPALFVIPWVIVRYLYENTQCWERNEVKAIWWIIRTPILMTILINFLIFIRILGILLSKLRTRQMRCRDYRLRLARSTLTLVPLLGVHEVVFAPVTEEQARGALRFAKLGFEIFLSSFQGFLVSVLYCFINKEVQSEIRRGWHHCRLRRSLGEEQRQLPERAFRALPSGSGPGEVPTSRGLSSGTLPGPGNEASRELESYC
Procedure: After a 30-minute incubation at 37° C., the resulting increase in intracellular cAMP is quantitatively determined using the CisBio CAMP Dynamic 2 HTRF Assay Kit (62AM4PEJ). Briefly, cAMP levels within the cell are detected by adding the cAMP-d2 conjugate in cell lysis buffer followed by the antibody anti-cAMP-Eu^3+-Cryptate, also in cell lysis buffer.
Intracellular cAMP levels are determined by extrapolation using a standard curve. Dose response curves of compounds are plotted as the percentage of stimulation normalized to minimum (buffer only) and maximum (maximum concentration of each control ligand) values and analyzed using a four parameter non-linear regression fit with a variable slope (Genedata Screener 13). EC50 is the concentration of compound causing half-maximal simulation in a dose response curve. Each relative EC50 value for the Geometric mean calculation is determined from a curve fitting.

[3] = target: human GcgR (Homo sapiens, UniProt P47871); experiment: Functional cAMP activity in the presence of 1% HSA; conditions: read-out: cAMP Rel EC50, hGcgR
[4] = target: T1, hGLP-1R; experiment: Functional cAMP activity in the presence of 1% HSA; conditions: read-out: cAMP Rel EC50, hGLP-1R
[5] = target: hGcgR (Homo sapiens, UniProt P47871); experiment: Functional cAMP activation in the presence of 0.1% casein (no HSA); conditions: read-out: Relative cAMP EC50, hGcgR;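 note: intracellular cAMP rise after 30 min at 37 °C, read by HTRF against a cAMP standard curve, scaled from buffer only (0%) to maximal control ligand response (100%)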
[6] = target: T2, hGIPR; experiment: Functional cAMP activity in the presence of 1% HSA; conditions: read-out: cAMP Rel EC50, hGIPR
[7] = in the presence of 0.1% casein (no HSA), geometric mean

Chain of human GcgR (P47871 26-477): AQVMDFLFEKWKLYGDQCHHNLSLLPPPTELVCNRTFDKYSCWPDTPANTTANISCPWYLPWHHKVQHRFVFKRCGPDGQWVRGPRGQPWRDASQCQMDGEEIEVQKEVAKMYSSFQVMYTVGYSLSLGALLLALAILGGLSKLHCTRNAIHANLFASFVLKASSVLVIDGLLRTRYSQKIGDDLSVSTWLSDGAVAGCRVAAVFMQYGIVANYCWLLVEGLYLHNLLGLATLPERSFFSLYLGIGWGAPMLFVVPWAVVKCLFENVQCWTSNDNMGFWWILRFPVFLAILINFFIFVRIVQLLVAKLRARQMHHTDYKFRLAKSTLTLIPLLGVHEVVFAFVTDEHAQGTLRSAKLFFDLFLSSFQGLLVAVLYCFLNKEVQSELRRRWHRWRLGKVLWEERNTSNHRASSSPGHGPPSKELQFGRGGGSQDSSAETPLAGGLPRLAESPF
Chain of hGcgR (P47871 26-477): as above
T1 sequence (P43220 24-463): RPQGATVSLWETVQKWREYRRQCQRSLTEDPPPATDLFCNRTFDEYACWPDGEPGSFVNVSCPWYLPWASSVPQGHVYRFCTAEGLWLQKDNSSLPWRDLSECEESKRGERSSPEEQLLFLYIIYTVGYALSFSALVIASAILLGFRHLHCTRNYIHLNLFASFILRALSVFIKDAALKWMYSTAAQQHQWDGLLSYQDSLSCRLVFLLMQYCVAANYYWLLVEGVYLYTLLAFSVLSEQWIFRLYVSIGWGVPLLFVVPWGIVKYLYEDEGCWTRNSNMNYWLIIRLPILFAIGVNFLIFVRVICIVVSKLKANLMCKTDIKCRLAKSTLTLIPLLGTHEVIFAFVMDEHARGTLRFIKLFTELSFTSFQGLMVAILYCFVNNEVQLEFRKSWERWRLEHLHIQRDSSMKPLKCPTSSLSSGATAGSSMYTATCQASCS

Substance: H-Y[Aib]QGTFTSD[4Pal][αMeS]Q[αMeL]LD[Orn]K([dE-γGlu-C18 diacid])AQ[αMe4Pal]QFIQ[αMeY]LLE[Aib]GPSSGAPPPSGGGE-NH2 [Example 1138]
- EC50 [1, 7]: 1.93 nM
- EC50 [2, 7]: 0.0491 nM
- EC50 [3]: 72.8 nM
- EC50 [4]: 164 nM
- EC50 [5, 7]: 1.01 nM
- EC50 [6]: 3.4 nM

Substance: H-Y[Aib]QGTFTSD[4Pal]SQ[αMeL]LDKK([AEEA-γGlu-C18 diacid])AQ[αMe4Pal]AFIEYLLAGGPSSGAPPPSGSEE-NH2 [Example 1037]
- EC50 [1, 7]: 5.95 nM
- EC50 [2, 7]: 0.221 nM
- EC50 [3]: 291 nM
- EC50 [4]: 625 nM
- EC50 [5, 7]: 3.31 nM
- EC50 [6]: 13.7 nM

Substance: H-Y[Aib]QGTFTSD[4Pal]SQ[αMeL]LD[Orn]K([γGlu-γGlu-C18 diacid])AQ[Aib]AFIE[αMeY]LLEGGPSSGAPPPSGSEE-NH2 [Example 946]
- EC50 [1, 7]: 2.05 nM
- EC50 [2, 7]: 0.353 nM
- EC50 [3]: 1950 nM
- EC50 [4]: 576 nM
- EC50 [5, 7]: 16.5 nM
- EC50 [6]: 57.4 nM

Substance: H-Y[Aib]QGT[αMePhe(2-F)]TSD[4Pal][αMeS]I[αMeL]LD[Orn]K([AEEA-γGlu-C18 diacid])AQ[αMe4Pal]EFI[dE][αMeY]LIEGGPSSGAPPPTGE-NH2 [Example 1142]
- EC50 [1, 7]: 0.329 nM
- EC50 [2, 7]: 0.00706 nM
- EC50 [3]: 203 nM
- EC50 [4]: 38 nM
- EC50 [5, 7]: 1.34 nM
- EC50 [6]: 0.748 nM

Substance: H-Y[Aib]QGTFTSD[4Pal]S[Orn][αMeL]LDKK([γGlu-γGlu-C18 diacid])AQ[αMe4Pal]AFIE[αMeY]LIEGGPSSGAPPPSGSEE-NH2 [Example 967]
- EC50 [1, 7]: 1.75 nM
- EC50 [2, 7]: 0.205 nM
- EC50 [3]: 508 nM
- EC50 [4]: 345 nM
- EC50 [5, 7]: 1.94 nM
- EC50 [6]: 39.5 nM

Substance: H-Y[Aib]QGTFTSD[4Pal]SQ[αMeL]LD[Orn]K([AEEA-γGlu-C18 diacid])AQ[αMe4Pal]AFIE[αMeY]LIE[Aib]GPSSGAPPPSGSEE-NH2 [Example 1108]
- EC50 [1, 7]: 0.752 nM
- EC50 [2, 7]: 0.0507 nM
- EC50 [3]: 468 nM
- EC50 [4]: 76.2 nM
- EC50 [5, 7]: 4.96 nM
- EC50 [6]: 5.22 nM

Substance: H-Y[Aib]QGTFTSD[4Pal]S[Orn][αMeL]LDKK([γGlu-γGlu-C18 diacid])AQ[αMe4Pal]AFIEYLIAGGPSSGEPPPSGTE-NH2 [Example 980]
- EC50 [1, 7]: 2.26 nM
- EC50 [2, 7]: 0.18 nM
- EC50 [3]: 239 nM
- EC50 [4]: 290 nM
- EC50 [5, 7]: 2.41 nM
- EC50 [6]: 15.4 nM

Substance: H-Y[Aib]QGTFTSDYSI[αMeL]LDKQAAK([AEEA-AEEA-γGlu-C20 diacid])QFIEWLIEGGPSSGEPPPGEG-NH2 [Example 318]
- EC50 [1, 7]: 0.698 nM
- EC50 [2, 7]: 0.378 nM
- EC50 [3]: 1970 nM
- EC50 [4]: 111 nM
- EC50 [5, 7]: 5.03 nM
- EC50 [6]: 52.8 nM

Substance: H-Y[Aib]QGTFTSD[4Pal]S[Orn][αMeL]LDKK([γGlu-γGlu-C18 diacid])AQ[Aib]AFIE[αMeY]LLEGGPSSGAPPPSGS-NH2 [Example 942]
- EC50 [1, 7]: 3.52 nM
- EC50 [2, 7]: 0.188 nM
- EC50 [3]: 1560 nM
- EC50 [4]: 490 nM
- EC50 [5, 7]: 6.32 nM
- EC50 [6]: 28.3 nM

Substance: H-Y[Aib]QGT[αMePhe(2-F)]TSD[4Pal][αMeS]I[αMeL]LD[Orn]K([γGlu-γGlu-C18 diacid])AQ[αMe4Pal]EFI[dE][αMeY]LVEGGPSSGEPPPSGGGE-NH2 [Example 739]
- EC50 [1]: 0.348 nM
- EC50 [2]: 0.015 nM
- EC50 [3]: 155 nM
- EC50 [4]: 27.1 nM
- EC50 [5]: 1.59 nM
- EC50 [6]: 0.507 nM

Substance: H-Y[Aib]QGTFTSD[4Pal]SQ[αMeL]LD[Orn]K([AEEA-γGlu-C18 diacid])AQ[αMe4Pal]AFIEYLIQ[Aib]GPSSGEPPPSGSEE-NH2 [Example 1096]
- EC50 [1, 7]: 1.47 nM
- EC50 [2, 7]: 0.0799 nM
- EC50 [3]: 397 nM
- EC50 [4]: 194 nM
- EC50 [5, 7]: 3.94 nM
- EC50 [6]: 11.6 nM
